Experimental data reported in patent US12576061B2, “Agent for inducing regression of triglyceride deposit atherosclerosis” (OSAKA UNIVERSITY, priority 2020, dated 2026).
“Also recorded” adds a separate entry of the source.

Experiments:
[1] = tested on: dermal fibroblasts derived from a diabetic patient; assay: Intracellular triglyceride content of dermal fibroblasts cultured with fatty acids; format: cell-based, human; conditions: 2 days of culture; for potency for reducing triglyceride compared with other fatty acid: Example 4-2, 125 μM and 500 μM, FIG. 7
From the text: A portion of skin tissue was sampled from a diabetic patient after the patient's consent. This sample skin tissue was subjected to primary culture (culture medium: DMEM/10% FBS) by a tissue fragment culture method (Explant method) and subsequent successive passages, and then developed into a cell line. The dermal fibroblasts derived from the patient were used to examine the effect of various fatty acids on intracellular triglyceride content. The intracellular triglyceride content of the dermal fibroblasts derived from the diabetic patient was about 5 times higher than the average intracellular triglyceride content of dermal fibroblasts derived from three healthy subjects. The long-chain fatty acids used were palmitic acid (C16:0), oleic acid (C18:1), linoleic acid ([…]), arachidonic acid (C20:4), and […] (C20:5). The medium-chain fatty acids used were heptanoic acid (C7:0) and capric acid (C10:0). These different fatty acids were separately added at 50 μM and 500 μM to the media of dermal fibroblasts from the diabetic patient described above. After 2 days of culture, the cells were collected, and the intracellular triglyceride content was measured using a triglyceride quantification kit (BioVision). The medium-chain fatty acids used were capric acid (C10:0), caprylic acid (C8:0), and 8-methylnonanoic acid ([…]). These different fatty acids were separately added at 125 μM and 500 μM to the media of dermal fibroblasts from the diabetic patient described above. After 2 days of culture, the cells were collected, and the intracellular triglyceride content was measured using a triglyceride quantification kit (BioVision). For controls, 500 μM palmitic acid (C16:0) or no fatty acid was added to the medium of the same dermal fibroblasts as those used above.

[2] = tested on: TG deposit atherosclerosis in the coronary artery; assay: Coronary CT angiography, color-coded images of lipid accumulation in the coronary artery; format: in vivo, human
Method: Before and 50 days after the start of the tricaprin/trisdecanoin diet, a standard coronary CT angiography was performed to generate three-dimensional (3D) DICOM images of the left anterior descending coronary artery. The images were resampled to a voxel size of 0.1 mm^3 and color-coded according to CT values of individual voxels. Smoothing was applied between adjacent voxels. Colors were coded as follows: light gray (yellow in the color image): −25 HU to 0 HU (massive lipid accumulation); medium gray (orange in the color image): 0 HU to 40 HU (moderate lipid accumulation); dark gray (green in the color image): 40 HU to 125 HU (no lipid accumulation).
(§1) Before and 4 years after the start of the tricaprin/trisdecanoin diet, a standard coronary CT angiography was performed, and the images of the inside of the left anterior descending coronary artery were color-coded in the same manner as described in Example 1. The images of the designated segment of the coronary artery were analyzed with a 3D image analysis system SYNAPSE VINCENT v5.5 (FUJIFILM Corporation) to examine changes in lipid accumulation and vascular lumen size in the designated segment. In the image analysis, the area with CT values ranging −25 to 40 HU was regarded as lipid accumulation, and the area with CT values ranging 215 to 700 HU was regarded as the vascular lumen.
(§2) Angiograms of the coronary artery were taken before and 3 months after the start of the tricaprin/trisdecanoin diet. A standard coronary CT angiography was also performed, and the images were color-coded in the same manner as described in Example 1. The images of the designated segment of the coronary artery were subjected to 3D image analysis in the same manner as described in Example 2 to examine changes in lipid accumulation and vascular lumen size in the designated segment.

[3] = tested on: coronary arteries of patient with idiopathic TGCV; assay: Angiograms of the coronary artery, blood flow; format: in vivo, human; conditions: Example 3 patient, refractory angina
Method: as §2

[4] = Serum lipid levels before and after the start of the tricaprin/trisdecanoin diet; format: in vivo, human; conditions: for LDL cholesterol, serum / HDL cholesterol, serum / TG (triglyceride), serum: After treatment
Method: The mean values of the triglyceride, LDL cholesterol, and HDL cholesterol levels measured before the start of the tricaprin/trisdecanoin diet were compared to those measured for 4 years after the start of the tricaprin/trisdecanoin diet. […] The LDL cholesterol level was under control within the normal range (60 to 119 mg/dL).
The mean values of the triglyceride, LDL cholesterol, and HDL cholesterol levels measured before the start of the tricaprin/trisdecanoin diet were compared to those measured for 3 months after the start of the tricaprin/trisdecanoin diet. […] The LDL cholesterol level was under control at a level lower than the normal range (60 to 119 mg/dL).

[5] = tested on: TG deposit atherosclerosis in the coronary artery; assay: 3D image analysis (SYNAPSE VINCENT) of lipid accumulation and vascular lumen size in designated coronary segment; format: in vivo, human
Method: as §1, §2

[6] = tested on: recurrent cerebral infarction; assay: Clinical course of the patient during the tricaprin/trisdecanoin diet; format: in vivo, human; conditions: Example 2 patient with history of cerebral infarction; 1.5 g/day for 4 years
From the text: A person who had suffered from refractory angina for years. The patient had diabetes with a history of middle cerebral artery occlusion and cerebral infarction. The patient presented to hospital with a chief complaint of rest and nocturnal angina. […] Their chest pain was refractory to existing medications (sublingual nitroglycerin, calcium channel blockers, β-blockers, antiplatelet agents, and statins) and rather worsened. […] The patient received tricaprin/trisdecanoin three times per day after meals in a total daily dose of 1.5 g for 4 years.

[7] = biological target: T1, PCSK9 (Homo sapiens, UniProt Q8NBP7); conditions: evolocumab group (484 patients) on statin treatment, cited from earlier work
T1 construct: randomly assigned to receive evolocumab (monoclonal antibody against PCSK9); host or cells: patients (in vivo, endogenous circulating PCSK9)

[8] = Example 2 patient, 1.5 g/day for 4 years
[9] = Example 3 patient, 4.5 g/day for 3 months

T1 sequence (Q8NBP7 153-692): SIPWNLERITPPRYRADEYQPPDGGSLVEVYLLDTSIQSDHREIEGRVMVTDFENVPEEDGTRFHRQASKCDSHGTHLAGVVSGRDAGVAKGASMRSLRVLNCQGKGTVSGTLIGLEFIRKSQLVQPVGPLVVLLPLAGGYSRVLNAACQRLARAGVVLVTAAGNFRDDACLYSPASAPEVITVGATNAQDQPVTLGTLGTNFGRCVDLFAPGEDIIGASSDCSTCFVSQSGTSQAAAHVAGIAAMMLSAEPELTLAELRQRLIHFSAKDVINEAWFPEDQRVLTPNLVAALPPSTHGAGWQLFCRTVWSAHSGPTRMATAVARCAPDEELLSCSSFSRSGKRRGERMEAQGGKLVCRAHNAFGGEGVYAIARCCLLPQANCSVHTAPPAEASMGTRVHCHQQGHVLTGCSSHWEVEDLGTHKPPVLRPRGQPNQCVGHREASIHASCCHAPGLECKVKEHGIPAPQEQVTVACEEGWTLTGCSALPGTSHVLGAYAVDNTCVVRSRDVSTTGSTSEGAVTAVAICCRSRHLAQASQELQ

For `CC(C)CCCCCCC(=O)O` [8-methylnonanoic acid], the “potency for reducing triglyceride compared with other fatty acid” value [1] was “more potent medium-chain fatty acids for reducing triglyceride than palmitic acid”.

With `CCCCCCCCCC(=O)O` [capric acid] the “intracellular triglyceride content relative to control cells (100%)” value ([1]; Example 4-1, fatty acid added at 50 μM and 500 μM, FIG. 6) was “reduction in intracellular triglyceride content” and the “potency for reducing triglyceride compared with other fatty acid” value [1] was “more potent medium-chain fatty acids for reducing triglyceride than palmitic acid”.

For `CCCCCCCCCC(=O)OCC(COC(=O)CCCCCCCCC)OC(=O)CCCCCCCCC` [tricaprin/trisdecanoin], the “TG deposit atherosclerosis in the coronary artery (color-coded CT images)” value ([2]; Example 1 patient, person with ATGL deficiency, 6 to 9 g/day after meals for 50 days, left anterior descending coronary artery) was “regression of TG deposit atherosclerosis in the coronary artery”, the “stenosis of the vascular lumen” value ([2]; Example 2 patient, refractory angina, diabetes, 1.5 g/day for 4 years, segment 7 to 9 cm from coronary ostium, before diet 90% to 75% diffuse stenosis) was “about 25%” and the “TG deposit atherosclerosis in the coronary artery” value [2, 8] was “regression of TG deposit atherosclerosis in the coronary artery”. The “characteristic pattern of TG deposit atherosclerosis (lipid deposition protruding from adventitial toward medial side)” value [2, 8] was “diminished or disappeared”, the “diameter of the vascular lumen through which the blood flowed” value [2, 8] was “marked enlargement” and the “TG deposit atherosclerosis in the coronary artery” value [2, 9] was “regression of TG deposit atherosclerosis in the coronary artery”. For the same molecule, the “diameter of the vascular lumen through which the blood flowed” value [2, 9] was “marked enlargement”, the “blood flow to the peripheral coronary arteries” value ([3]; 4.5 g/day for 3 months) was “clearly improved” and the “blood flow in the coronary arteries as a whole” value ([3]; oral 4.5 g/day for 3 months) was “improvement in coronary blood flow; also recorded: improvement in the blood flow”. The “LDL cholesterol, serum” value ([4]; Mean ± SD over 3 months, Example 3 patient, 4.5 g/day, on statin, before treatment 52 ± 2.9) was 54 ± 1.8 mg/dL, the “HDL cholesterol, serum” value ([4]; Mean ± SD over 3 months, Example 3 patient, 4.5 g/day, before treatment 35 ± 1.0) was 38 ± 1.0 mg/dL and the “TG (triglyceride), serum” value ([4]; Mean ± SD over 3 months, Example 3 patient, 4.5 g/day, before treatment 78 ± 2.1) was 75 ± 11.3 mg/dL. The “HDL cholesterol, serum” value ([4]; Mean ± SD over 4 years, Example 2 patient, 1.5 g/day, before treatment 34.5 ± 0.5) was 33 ± 4.0 mg/dL, the “LDL cholesterol, serum” value ([4]; Mean ± SD over 4 years, Example 2 patient, 1.5 g/day, before treatment 95 ± 9.0) was 91 ± 13.6 mg/dL and the “TG (triglyceride), serum” value ([4]; Mean ± SD over 4 years, Example 2 patient, 1.5 g/day, before treatment 308 ± 7.5) was 334 ± 118.2 mg/dL. For the same molecule, the “effect on the serum lipid levels” value [4, 8] was “no effect on the serum lipid levels”, the “effect on the serum lipid levels” value [4, 9] was “no effect on the serum lipid levels” and the Vascular lumen ([5]; % increase vs before diet, Example 2 patient, 1.5 g/day for 4 years, segment designated in FIG. 2, 2.2 cm, CT values 215 to 700 HU) was 260% increase. For the same molecule, the Vascular lumen ([5]; % increase, Example 3 patient, 4.5 g/day for 3 months, not stented segment Circumflex 7.2 cm) was 17% increase, the Vascular lumen ([5]; % increase, Example 3 patient, 4.5 g/day for 3 months, not stented segment LAD 3.7 cm) was 48% increase and the Vascular lumen ([5]; % increase, Example 3 patient, 4.5 g/day for 3 months, not stented segment RCA 3.4 cm) was 24% increase. The Lipid accumulation ([5]; % reduction vs before diet, Example 2 patient, 1.5 g/day for 4 years, segment designated in FIG. 2, 2.2 cm, CT values -25 to 40 HU) was 27% reduction, the Lipid accumulation ([5]; % reduction, Example 3 patient, 4.5 g/day for 3 months, not stented segment Circumflex 7.2 cm) was 50% reduction and the Lipid accumulation ([5]; % reduction, Example 3 patient, 4.5 g/day for 3 months, not stented segment LAD 3.7 cm) was 53% reduction. For the same molecule, the Lipid accumulation ([5]; % reduction, Example 3 patient, 4.5 g/day for 3 months, not stented segment RCA 3.4 cm) was 14% reduction and the recurrent cerebral infarction [6] was “free from recurrent cerebral infarction”.

B1: evolocumab: monoclonal antibody against PCSK9 (antibody, chains of the INN, looked up, V domains shown)
VH: EVQLVQSGAEVKKPGASVKVSCKASGYTLTSYGISWVRQAPGQGLEWMGWVSFYNGNTNYAQKLQGRGTMTTDPSTSTAYMELRSLRSDDTAVYYCARGYGMDVWGQGTTVTVSS
VL: ESALTQPASVSGSPGQSITISCTGTSSDVGGYNSVSWYQQHPGKAPKLMIYEVSNRPSGVSNRFSGSKSGNTASLTISGLQAEDEADYYCNSYTSTSMVFGGGTKLTVL
In the case of B1, the “LDL cholesterol level at week 76” value ([7]; 92.6 mg/dL before the start of the trial) is listed as 36.6 mg/dL, the “LDL cholesterol level at week 76 as % of the level before the start of the trial” value [7] is listed as “about 40%” and the “percent atheroma volume, reduction at week 76” value [7] is listed as 0.95%.
